Assay [1] has as its system HEK293 cells (CL1). Description: rAAV8 yield in suspension HEK293 (CL1) shaker flasks, vector genome ddPCR.
Assay [2] concerns HEK293 cells. Description: rAAV yield in 10 L bioreactor fermentation of HEK293 cells, ddPCR. It is filed as cell-based, human. Particulars: supernatant. The text has this:
(§1) To test the effect of IFN inhibitor on the rAAV yield in large-scale bioreactor fermentation of HEK293 cells, 10 L bioreactors have been used. The results are shown in FIG. 3A (determination by capsid particlerAAV8 ELISA) and FIG. 3B (determination by ddPCR).

The test system of assay [3] is Adherent HEK293 cells. Description: rAAV yield in adherent HEK293 cells in T75 flasks, capsid particle AAV8 ELISA. It is filed as cell-based, human. Particulars: supernatant, vs control condition. On the procedure: (§2) Adherent HEK293 cell line (Agilent Technologies CAT #240073, Lot #0006218516) was cultivated in T75 flasks in a total volume of 23 mL with DMEM media containing 2% FCS. The cultivation of the cells was performed in an incubator at +37° C. and 5% CO2. 1 mM Ruxolitnib stock solution was prepared by dissolving the solid white powder in DMSO according to the manufacturer's instructions before use and stored at −20° C. During the last passage before transfection Ruxolitinib was added to the cell culture at defined concentrations. Every condition was tested in duplicates. At transfection day a confluence range of 60 to 80% was achieved.
(§3) The statistical mean of the control condition was calculated as 100%.
A general note: An ELISA detects its analyte on a solid surface through an enzyme-linked reagent.

Assay [4] has as its system HEK293 cells. Briefly: rAAV yield in 10 L bioreactor fermentation of HEK293 cells, rAAV8 capsid particle ELISA. It is filed as cell-based, human. As to conditions: supernatant, vs negative control without inhibitor.
From the text: as §1

A further assay deals with suspension HEK293 (CL1). Briefly: Lentivirus production in suspension HEK293 (CL1) shake flasks, p24 ELISA. It is filed as cell-based, human. As to conditions: vs untreated control (100%). On the procedure: Transient transfection of HEK293 to produce Lentivirus was performed with pALDI-Lenti system (Aldevron). […]. The transfection mix consisted of the four-plasmid system, DMEM media and PEI as transfection reagent. The ratio between the used plasmids was 1:1:1:1 and the plasmid DNA PEI ration was 1:3.
The ELISA quantifies structural HIV1 p24 capsid protein amount in cell culture and supernatant samples. It is a quantitative sandwich ELISA method. For titering lentiviral expression HIV1 p24 ELISA Kit ab218268 was used. To discriminate between viral p24 produced by lentivirus and associated p24 produced by HEK293 cells Cell Biolabs Quick Titer™ Kit including LV-Origine/TR30021/Lot #134641F and the Cell Biolabs Reference Standard #310809 was used. The virus pulldown technology ensures detection of lentiviral associated p24 only.
The suspension HEK293 (CL1) experiments with a four-plasmid lentiviral transfection were performed in shake flasks with the same conditions as shown in Table 2. The statistical mean of the control condition was evaluated as 100%.

Assay [5] deals with HEK293 cells (CL1). Briefly: rAAV8 yield in suspension HEK293 (CL1) shaker flasks, capsid particle AAV8 ELISA.
From the text: The commercially available enzyme-linked immunosorbent assay (ELISA; Progen AAV8 titration ELISA kit, cat. No. PRAAV8) uses a monoclonal antibody (ADK8) specific for a conformational epitope on assembled AAV8 capsids. This plate-immobilized antibody captures rAAV-8 particles from the specimen. Captured particles are then detected by the binding of biotinylated anti-AAV8 ADK8 since epitope targeted is repeatedly expressed on the assembled AAV8 capsid. Streptavidin peroxidase and a peroxidase substrate is then used for measuring bound anti-AAV8 and thus the concentration of AAV8 capsid. The color reaction was measured photometrically at 450 nm. The kit contains an rAAV2/8 particle preparation as calibration standard with a labelled rAAV8 particle concentration.
Assay [6] relates to Adherent HEK293 cells. Briefly: rAAV yield in adherent HEK293 cells in T75 flasks, ddPCR. As to conditions: supernatant, vs control condition (100%). It is filed as cell-based, human. Here is the method:
as §2, §3

On to `N#CC[C@H](C1CCCC1)n1cc(-c2ncnc3[nH]ccc23)cn1` [Ruxolitinib, (3R)-3-cyclopentyl-3-[4-(7H-pyrrolo[2,3-d]pyrimidin-4-yl)pyrazol-1-yl]propanenitrile], for which the “rAAV yield in the cell suspension” value was “about 2×10^13 vg/L cell culture” with HEK293 cells (CL1) [1] (5 μM ruxolitinib, cell suspension) and “about 2×10^13 vg/L cell culture” with HEK293 cells (CL1) [1] (10 μM ruxolitinib, cell suspension). Further, in the assay with HEK293 cells (CL1) [1] (10 μM ruxolitinib, cell suspension, vs negative control without inhibitor), the “increase of the vector genome (vg) in the cell suspension” value was “about 2 fold”. For the same compound, the “increase of the vector genome (vg) in the supernatant” value in the assay with HEK293 cells (CL1) [1] (10 μM ruxolitinib, supernatant, vs negative control without inhibitor) is listed as “about 2.5 fold”. In the assay on HEK293 cells [2], the “improvement of rAAV yield by ddPCR” value is listed as “approximately 1.3 fold”. Moreover, the “capsid particle yield increase (ELISA)” value in the assay on Adherent HEK293 cells [3] (1 μM inhibitor) came to 49%; with Adherent HEK293 cells [3] (5 μM inhibitor), 66.5%. The “capsid particle titer increase (ELISA)” value in the assay with Adherent HEK293 cells [3] (10 μM inhibitor) is given as 62%. For the same compound, in the assay with HEK293 cells [4], the “improvement of rAAV8 capsid particles by ELISA” value is given as “about 1.5 fold”. Moreover, the “lentiviral cp titer increase (p24 ELISA)” value in the assay with suspension HEK293 (CL1) (5 μM inhibitor) was determined as 40%; in the assay with suspension HEK293 (CL1) (10 μM inhibitor) it was 81.5%. In addition, the “effect on rAAV yield at higher concentrations” value in the assay with HEK293 cells (CL1) [5] (concentrations higher than 10 μM) is “reduction of the effect”. In addition, the “increase of rAAV yield as determined in cell suspension” value in the assay on HEK293 cells (CL1) [5] (optimal concentration 5 μM, vs yield in absence of inhibitor) is on record as “about 3 fold”. Also, the “vg yield increase (ddPCR)” value with Adherent HEK293 cells [6] (1 μM inhibitor) was found to be 48%; in the assay with Adherent HEK293 cells [6] (5 μM inhibitor) it was 38.5%; with Adherent HEK293 cells [6] (10 μM inhibitor), 31%.
